Test results: ChEMBL document CHEMBL5131517 (ACS Med Chem Lett, 2022)

Legend:
Format in all cases: functional, cell-based
[1] = target: T1, 5-hydroxytryptamine receptor 2C (Homo sapiens) (UniProt P28335); experiment: Agonist activity at human 5HT2C receptor stably expressed in Flp-In-T-REx-293 cells assessed as maximal Gq-mediated calcium flux by Fluo-4 direct dye based FLIPR Tetra assay relative to control
T1 sequence (whole entry): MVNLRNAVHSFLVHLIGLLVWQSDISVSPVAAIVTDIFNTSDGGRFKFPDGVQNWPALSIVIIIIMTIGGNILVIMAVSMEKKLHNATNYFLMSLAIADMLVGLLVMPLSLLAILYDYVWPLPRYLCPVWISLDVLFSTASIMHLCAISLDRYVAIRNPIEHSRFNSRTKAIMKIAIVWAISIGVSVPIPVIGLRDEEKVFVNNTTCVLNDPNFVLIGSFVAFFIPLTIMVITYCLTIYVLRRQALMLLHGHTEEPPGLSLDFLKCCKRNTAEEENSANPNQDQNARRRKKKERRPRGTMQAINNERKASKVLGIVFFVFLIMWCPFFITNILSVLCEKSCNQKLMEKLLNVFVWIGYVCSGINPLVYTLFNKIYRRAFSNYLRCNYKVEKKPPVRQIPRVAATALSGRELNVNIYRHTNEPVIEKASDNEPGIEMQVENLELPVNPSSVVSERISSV

[2] = target: T2, 5-hydroxytryptamine receptor 2C (Homo sapiens, UniProt P28335); experiment: Agonist activity at human 5HT2C receptor stably expressed in Flp-In-T-REx-293 cells assessed as increase in Gq-mediated calcium flux by Fluo-4 direct dye based FLIPR Tetra assay
T2 sequence (P28335 whole entry): T1 sequence (whole entry)

[3] = target: T3, 5-hydroxytryptamine receptor 2A (Homo sapiens, UniProt P28223); experiment: Agonist activity at human 5HT2A receptor stably expressed in Flp-In-T-REx-293 cells assessed as increase in Gq-mediated calcium flux by Fluo-4 direct dye based FLIPR Tetra assay
T3 sequence (P28223 whole entry): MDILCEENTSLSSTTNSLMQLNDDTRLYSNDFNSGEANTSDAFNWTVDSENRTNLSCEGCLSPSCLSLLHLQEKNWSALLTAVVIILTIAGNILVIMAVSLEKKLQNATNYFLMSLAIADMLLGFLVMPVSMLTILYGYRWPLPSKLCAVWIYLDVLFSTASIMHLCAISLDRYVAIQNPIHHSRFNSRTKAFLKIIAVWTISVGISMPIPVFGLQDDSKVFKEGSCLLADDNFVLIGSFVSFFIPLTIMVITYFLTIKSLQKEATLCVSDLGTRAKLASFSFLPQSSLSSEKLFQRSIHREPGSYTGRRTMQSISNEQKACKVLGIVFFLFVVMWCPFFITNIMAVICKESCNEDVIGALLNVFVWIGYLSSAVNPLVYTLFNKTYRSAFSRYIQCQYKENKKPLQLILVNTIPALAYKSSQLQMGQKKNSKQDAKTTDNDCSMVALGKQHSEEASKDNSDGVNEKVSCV

[4] = target: T3, 5-hydroxytryptamine receptor 2A; experiment: Agonist activity at human 5HT2A receptor stably expressed in Flp-In-T-REx-293 cells assessed as maximal Gq-mediated calcium flux by Fluo-4 direct dye based FLIPR Tetra assay relative to control

| Compound | Emax ([1]; filed as agonist) [%] | EC50 ([2]; read-out: EC50) [nM] | EC50 [3] [nM] | Emax ([4]; filed as agonist) [%] | EC50 ([2]; read-out: pEC50 (converted)) [nM] | Emax [1] [%] | Emax [4] [%] |
| --- | --- | --- | --- | --- | --- | --- | --- |
| Oc1ccc(C2NCCc3c2[nH]c2ccc(O)cc32)cc1 (stereo unspecified) | 99.4 | 152 | 159 | 80 | – | – | – |
| CCCC1NCCc2c1[nH]c1ccc(F)cc21 (stereo unspecified) | – | > 10000 | > 10000 | – | – | – | – |
| Oc1ccc2[nH]c3c(c2c1)CCNC3c1cncnc1 (stereo unspecified) | 83.3 | – | 800 | 89.3 | 2950 | – | – |
| Clc1ccc2[nH]c3c(c2c1)CCNC3c1ccccc1Cl (stereo unspecified) | 109 | 12.6 | 12.8 | 95.3 | – | – | – |
| Oc1ccc2[nH]c3c(c2c1)CCNC3Cc1ccccc1 (stereo unspecified) | 100 | 481 | 288 | 59.2 | – | – | – |
| Fc1ccc2[nH]c3c(c2c1)CCNC3c1ccc2ccccc2c1 (stereo unspecified) | 103 | 186 | 195 | 79.1 | – | – | – |
| Fc1ccccc1C1NCCc2c1[nH]c1ccc(Cl)cc21 (stereo unspecified) | – | 1160 | 8000 | – | – | 13.9 | 23.2 |
| Fc1ccc2[nH]c3c(c2c1)CCNC3c1ccccc1F (stereo unspecified) | 81 | 1010 | 302 | 48.9 | – | – | – |
| Oc1ccc2[nH]c3c(c2c1)CCNC3C1CCCCC1 (stereo unspecified) | – | 959 | 281 | 74.1 | – | 28.4 | – |
| Cc1noc(C)c1C1NCCc2c1[nH]c1ccc(Cl)cc21 (stereo unspecified) | 104 | 191 | 513 | 84.5 | – | – | – |
| Fc1ccc2[nH]c3c(c2c1)CCNC3c1cncnc1 (stereo unspecified) | 101 | – | – | 95.1 | – | – | – |
| Fc1ccc2[nH]c3c(c2c1)CCNC3C(c1ccccc1)c1ccccc1 (stereo unspecified) | 103 | 954 | 1910 | 92.5 | – | – | – |
| Cc1cccc(C2NCCc3c2[nH]c2ccc(O)cc32)c1 (stereo unspecified) | 99.1 | 191 | 244 | 60.9 | – | – | – |
| Fc1ccc2[nH]c3c(c2c1)CCNC3c1ccccc1Br (stereo unspecified) | 75.1 | 2100 | 98 | – | – | – | 10.5 |
| Oc1ccc(C2NCCc3c2[nH]c2ccc(F)cc32)cc1 (stereo unspecified) | 104 | 29.8 | 58.2 | 99.9 | 30.2 | – | – |
| Oc1ccc(C2NCCc3c2[nH]c2ccc(Cl)cc32)c(O)c1 (stereo unspecified) | 102 | 1.9 | 1.5 | 91.2 | – | – | – |
| Fc1ccc2[nH]c3c(c2c1)CCNC3C1CCCCC1 (stereo unspecified) | 103 | 20.4 | 91.2 | 87.3 | – | – | – |
| Clc1ccc2[nH]c3c(c2c1)CCNC3c1ccncc1Cl (stereo unspecified) | – | 2810 | 849 | 57.1 | – | 27.3 | – |
| Clc1ccc2[nH]c3c(c2c1)CCNC3C(c1ccccc1)c1ccccc1 (stereo unspecified) | 106 | 3240 | 1350 | 88.1 | 0.324 | – | – |
| Clc1ccc2[nH]c3c(c2c1)CCNC3c1ccccc1Br (stereo unspecified) | 98.4 | 95.2 | 403 | 91.4 | – | – | – |
| Oc1ccc(C2NCCc3c2[nH]c2ccc(Cl)cc32)cc1 (stereo unspecified) | 99.4 | 105 | 93.8 | 103 | – | – | – |

| Compound | Emax ([1]; filed as agonist) [%] | EC50 ([2]; read-out: EC50) [nM] | EC50 [3] [nM] | Emax ([4]; filed as agonist) [%] | EC50 ([2]; read-out: pEC50 (converted)) [nM] | Emax [1] [%] | Emax [4] [%] |
| --- | --- | --- | --- | --- | --- | --- | --- |
| Cn1ccnc1C1NCCc2c1[nH]c1ccc(O)cc21 (stereo unspecified) | 87.1 | 97 | 79 | 100 | – | – | – |
| Clc1ccc2[nH]c3c(c2c1)CCNC3C1CCOCC1 (stereo unspecified) | 63.8 | 295 | 371 | 42.8 | – | – | – |
| Clc1ccc2[nH]c3c(c2c1)CCNC3Cc1ccccc1 (stereo unspecified) | – | – | 2620 | 56.1 | – | – | – |
| COc1ccccc1C1NCCc2c1[nH]c1ccc(F)cc21 (stereo unspecified) | 94.3 | 75.4 | 126 | 43.1 | – | – | – |
| Clc1ccc2[nH]c3c(c2c1)CCNC3c1cncnc1 (stereo unspecified) | – | 420 | 898 | – | – | 38.7 | 32.1 |
| COc1ccc2cc(C3NCCc4c3[nH]c3ccc(Cl)cc43)ccc2c1 (stereo unspecified) | 93.7 | 1060 | 1320 | 66.8 | – | – | – |
| Cc1cccc(C2NCCc3c2[nH]c2ccc(Cl)cc32)c1 (stereo unspecified) | 89.1 | 256 | 481 | 63.1 | – | – | – |
| Cc1cc(C2NCCc3c2[nH]c2ccc(Cl)cc32)sc1Br (stereo unspecified) | 118 | 173 | 776 | 97.1 | – | – | – |
| Oc1cccc(C2NCCc3c2[nH]c2ccc(O)cc32)c1 (stereo unspecified) | 95.4 | 148 | 223 | 93.4 | – | – | – |
| Oc1ccc2[nH]c3c(c2c1)CCNC3c1ccccc1 (stereo unspecified) | – | – | 2510 | – | – | – | 26.3 |
| Oc1c(Br)cccc1C1NCCc2c1[nH]c1ccc(Cl)cc21 (stereo unspecified) | 107 | 68.6 | 74.5 | 97.9 | – | – | – |
| Clc1ccc2[nH]c3c(c2c1)CCNC3c1ccc(Cl)s1 (stereo unspecified) | 117 | 44 | 177 | 100 | – | – | – |
| Fc1ccc2[nH]c3c(c2c1)CCNC3CCc1ccccc1 (stereo unspecified) | 91.3 | 467 | 812 | – | – | – | 31.7 |
| Oc1ccc2[nH]c3c(c2c1)CCNC3c1ccccc1F (stereo unspecified) | 102 | 13.2 | 23 | 91.4 | – | – | – |
| COc1ccccc1C1NCCc2c1[nH]c1ccc(O)cc21 (stereo unspecified) | – | – | 269 | – | – | – | 21.5 |
| COc1cc(OC)c(C2NCCc3c2[nH]c2ccc(O)cc32)cc1OC (stereo unspecified) | 109 | 7.6 | 3.8 | 102 | – | – | – |
| Fc1ccc2[nH]c3c(c2c1)CCNC3c1ccccc1Cl (stereo unspecified) | 88.1 | 872 | 278 | – | – | – | 28.1 |
| COc1ccc(C2NCCc3c2[nH]c2ccc(O)cc32)c(O)c1 (stereo unspecified) | 114 | 0.8 | 0.5 | 103 | – | – | – |
| NCCc1c[nH]c2ccc(O)cc12 | – | – | – | 100 | – | – | – |
| Fc1ccc2[nH]c3c(c2c1)CCNC3c1nccs1 (stereo unspecified) | – | 1260 | – | – | – | 39.4 | – |
| Fc1ccc2[nH]c3c(c2c1)CCNC3c1cc2ccccc2s1 (stereo unspecified) | 110 | 912 | 1550 | 40 | – | – | – |

| Compound | Emax ([1]; filed as agonist) [%] | EC50 ([2]; read-out: EC50) [nM] | EC50 [3] [nM] | Emax ([4]; filed as agonist) [%] | EC50 ([2]; read-out: pEC50 (converted)) [nM] | Emax [1] [%] | Emax [4] [%] |
| --- | --- | --- | --- | --- | --- | --- | --- |
| Oc1ccc2[nH]c3c(c2c1)CCNC3c1ccc(Br)cc1O (stereo unspecified) | 100 | 173 | 364 | 67.8 | – | – | – |
| Cc1ccc(C2NCCc3c2[nH]c2ccc(O)cc32)cc1 (stereo unspecified) | 95 | 1130 | 312 | – | – | – | 11.2 |
| Fc1ncccc1C1NCCc2c1[nH]c1ccc(Cl)cc21 (stereo unspecified) | 75.2 | 1060 | 346 | 56.1 | – | – | – |
| Clc1ccc2[nH]c3c(c2c1)CCNC3c1cccs1 (stereo unspecified) | 48.6 | 602 | 724 | – | – | – | 23.7 |
| COc1ccc2cc(C3NCCc4c3[nH]c3ccc(F)cc43)ccc2c1 (stereo unspecified) | 76.3 | 3390 | 2820 | – | – | – | 30.5 |
| Oc1ccc2[nH]c3c(c2c1)CCNC3c1cc(Br)ccc1O (stereo unspecified) | 104 | 194 | 455 | 85.9 | – | – | – |
| Fc1ccc2[nH]c3c(c2c1)CCNC3c1ccccc1 (stereo unspecified) | 102 | 22.4 | 88.5 | 86.5 | – | – | – |
| Oc1ccccc1C1NCCc2c1[nH]c1ccc(Cl)cc21 (stereo unspecified) | 103 | 15.3 | 51.7 | 92.7 | – | – | – |
| Oc1ccc2[nH]c3c(c2c1)CCNC3c1ccccc1Cl (stereo unspecified) | – | – | 1420 | – | – | – | 14.3 |
| Clc1ccc2[nH]c3c(c2c1)CCNC3c1ccc2ccccc2c1 (stereo unspecified) | 102 | 24.5 | 15.1 | 96.5 | – | – | – |
| CCC1NCCc2c1[nH]c1ccc(Cl)cc21 (stereo unspecified) | 80.8 | 7940 | 398 | 74.3 | – | – | – |
| Fc1ccc2[nH]c3c(c2c1)CCNC3C1CCOCC1 (stereo unspecified) | 42.3 | 891 | 354 | – | – | – | 34.1 |
| Cc1ccc(C2NCCc3c2[nH]c2ccc(Cl)cc32)cc1 (stereo unspecified) | 97.2 | 62.5 | 303 | 94.1 | – | – | – |
| Fc1ccc2[nH]c3c(c2c1)CCNC3c1cccs1 (stereo unspecified) | 102 | 147 | 409 | – | – | – | 36.4 |
| Clc1ccc2[nH]c3c(c2c1)CCNC3CCc1ccccc1 (stereo unspecified) | 98.5 | 15.8 | 64 | 101 | – | – | – |
| Oc1ccc2[nH]c3c(c2c1)CCNC3c1ccccc1O (stereo unspecified) | 103 | – | – | – | – | – | 26.9 |
| CCC1NCCc2c1[nH]c1ccc(O)cc21 (stereo unspecified) | 97.6 | 61 | 195 | 85.1 | – | – | – |
| CCCC1NCCc2c1[nH]c1ccc(Cl)cc21 (stereo unspecified) | – | > 10000 | 646 | 50.1 | – | – | – |
| Fc1ccc2[nH]c3c(c2c1)CCNC3Cc1ccccc1 (stereo unspecified) | – | – | 1330 | 44.4 | – | – | – |
| Oc1ccc2[nH]c3c(c2c1)CCNC3CCc1ccccc1 (stereo unspecified) | – | – | 139 | 45.8 | – | – | – |
